Tests used:
[1] = tested on: motor neurons in astrocyte/motor neuron co-cultures; assay: Survival of motor neurons in astrocyte/motor neuron co-cultures; type: cell-based, rats; settings: for % OF LABELED MOTOR NEURONS: vehicle alone = 100 ± 9.4
Method: (§1) The motor neuron-enriched cultures are prepared using the centrifugation method which was described by R. L. SCHNAAR and A. E. SCHAFFNER, J. Neurosci., 1, 204-217 (1981) and modified by W. CAMU and C. E. HENDERSON, J. Neurosci. Methods, 44, 59-70 (1992). The motor neurons are spread, at a density of 2500 cells per plate, on 35 mm culture plates which have previously been coated with laminin/ornithine in accordance with the method of A. G. ESTEVEZ et al., J. Neurosci., 18 (3), 923-931 (1998). The cultures are then maintained in L15 medium (GIBCO BRL) containing sodium bicarbonate (22 mM), conalbumin (0.1 mg/ml), putrescine (0.1 mM), insulin (5 μg/ml), sodium selenite ([…]), glucose (20 mM), progesterone (21 nM), penicillin (100 IU/ml) and streptomycin (100 μg/ml).
The astrocytes are obtained from young, one-day-old rats using the slightly modified method of R. P. SANETO and J. DE VELLIS as described in Neurochemistry a practical approach (A. J. TURNER and H. S. St JOHN) IRL Press, Oxford-Washington D.C., pp. 27-63. The spinal cords are dissected out under sterile conditions and freed of meninges and dorsal ganglia. Five to ten spinal cords are transferred into PBS (phosphate buffer saline) and cut before being incubated at 37° C. for 25 minutes in PBS to which 0.25% trypsin has been added. The enzymatic treatment is stopped by adding 10 ml of Dulbecco's modified Eagle medium (DMEM), to which 10% fetal calf serum (FCS) has been added, and the cells are collected by centrifugation. Another step of mechanical dissociation is performed using the end of a 1 ml pipette. The cells are spread, at a density of 1.5-2×10^6 cells per 25 cm^2 of culture medium, in DMEM containing 10% FCS. After 2 days in vitro, the cultures are fed every day. When a visible monolayer of cells has been completed, the cultures are stirred at 250 rpm for 48 hours and, on the following day, the monolayers are treated with cytosine arabinoside (10^−5 M) for 48 hours. The astrocyte monolayers are then amplified to a density of five on 35 mm culture plates for initially 25 cm^2 culture flasks.
The spinal astrocyte cultures consist, to an extent of more than 98%, of flat, polygonal cells which are immunoreactive for the glial fibrillar acid protein (GFAP). The monolayers are exposed to the product to be tested and then incubated with the motor neuron medium in order to obtain a conditioned culture medium. This medium is transferred and tested at different dilutions in order to determine its effects on neuronal survival.
The cells are fixed in 4% paraformaldehyde and 0.1% glutaraldehyde in PBS (pH 7.4 and at 4° C. for 15 minutes) and in a cold methanolic solution. […]

[2] = tested on: motor neurons in motor neuron-enriched cultures; assay: Neuronal death in motor neuron-enriched cultures in the absence of trophic factor; type: cell-based; settings: p<0.05
Method: The effect of nicergoline has therefore been determined in a degeneration model which is induced by depriving cultured motor neurons of neurotrophic factor.
as §1
More than 70% of the cells are immunoreactive for the neurotrophin p75 receptor and the Islet ½ markers for spinal motor neurons. […]
The number of motor neurons is estimated by counting the labeled cells in an area of 0.4-1 cm^2 under a microscope which enlarges 200 times. In all cases, the values are expressed as a percentage of the number of motor neurons which are present in cultures maintained using trophic factors. […]

## CO[C@]12C[C@@H](COC(=O)c3cncc(Br)c3)CN(C)[C@@H]1Cc1cn(C)c3cccc2c13 [Nicergoline, (8β)-10-methoxy-1,6-dimethylergoline-8-methanol-5-bromonicotinate]
[1]; nicergoline 0.1 μM
  % OF LABELED MOTOR NEURONS: 115.7 ± 16%
[1]; nicergoline 1 μM, p < 0.05 vs vehicle
  % OF LABELED MOTOR NEURONS: 145.5 ± 24 %
[1]; nicergoline 10 μM
  increase of the survival of motor neurons as compared with cocultures treated with the vehicle alone: 63.7%
[1]; nicergoline 10 μM, p < 0.01 vs vehicle
  % OF LABELED MOTOR NEURONS: 163.7 ± 22.5 %
[2]
  increase of the survival of the motor neurons: 13%
